Results: patent US7847123B2, “Antimicrobial compositions” (Evonik Goldschmidt GmbH, priority 2006, dated 2010)

Columns and labels:
C. xerosis [1] = test: Antimicrobial effect: germ count over time in 0.3% by weight aqueous solution of test substance; type: cell-based, Corynebacterium xerosis; conditions: 0.3% by weight in water, 37° C.; for germ count CFU/ml, 0 hours: directly after addition (0 h)
Description: (§1) 20 ml of a 0.3% by weight solution of the test substance listed below in the table in water was inoculated with 200 μl of a fresh 48 hour culture of C. xerosis or S. epidermidis and incubated for three days at 37° C. Directly after the addition, as well as after 1, 3, 24 and 48 hours, samples, each of 1 ml, were taken and the germ count was determined.

S. epidermidis [2] = test: as above; type: cell-based, Staphylococcus epidermidis; conditions: 0.3% by weight in water, 37° C.; for germ count CFU/ml, 0 hours: directly after addition (0 h)
Description: as §1

C. xerosis [3] = test: pH dependency of the antimicrobial effect: germ count in buffered solutions; type: cell-based, Corynebacterium xerosis
Description: as §1
(§2) The antimicrobial effect of octyllactamide in buffered solutions was tested correspondingly to example 8 at various pH values.

S. epidermidis [4] = test: as above; type: cell-based, Staphylococcus epidermidis
Description: as §1, §2

PEG-10-octyllactamide [Octyl-PEG-10-lactamide]
germ count CFU/ml, 1 hour (C. xerosis [1]): 4.5E+5 CFU/ml | germ count CFU/ml, 3 hours (C. xerosis [1]): 1.8E+5 CFU/ml | germ count CFU/ml, 24 hours (C. xerosis [1]): 1.6E+3 CFU/ml | germ count CFU/ml, 48 hours (C. xerosis [1]): <2.0E+2 CFU/ml | germ count CFU/ml, 0 hours (C. xerosis [1]): 9.1E+5 CFU/ml | germ count CFU/ml, 1 hour (S. epidermidis [2]): 2.3E+6 CFU/ml | germ count CFU/ml, 3 hours (S. epidermidis [2]): 9.3E+6 CFU/ml | germ count CFU/ml, 24 hours (S. epidermidis [2]): 8.1E+4 CFU/ml | germ count CFU/ml, 48 hours (S. epidermidis [2]): <2.0E+2 CFU/ml | germ count CFU/ml, 0 hours (S. epidermidis [2]): 1.9E+7 CFU/ml

CCCCCCCCNC(=O)C(C)O (stereo not shown) [Octyllactamide, N-octyllactamide]
germ count CFU/ml, 1 hour (C. xerosis [1]): 1.5E+4 CFU/ml | germ count CFU/ml, 3 hours (C. xerosis [1]): <2.0E+2 CFU/ml | germ count CFU/ml, 24 hours (C. xerosis [1]): <2.0E+2 CFU/ml | germ count CFU/ml, 48 hours (C. xerosis [1]): <2.0E+2 CFU/ml | germ count CFU/ml, 0 hours (C. xerosis [1]): 9.1E+5 CFU/ml | germ count CFU/ml, 1 hour (S. epidermidis [2]): 3.7E+6 CFU/ml | germ count CFU/ml, 3 hours (S. epidermidis [2]): 3.0E+6 CFU/ml | germ count CFU/ml, 24 hours (S. epidermidis [2]): 2.3E+6 CFU/ml | germ count CFU/ml, 48 hours (S. epidermidis [2]): 8.5E+5 CFU/ml | germ count CFU/ml, 0 hours (S. epidermidis [2]): 1.9E+7 CFU/ml | germ count CFU/ml, 0 hours (C. xerosis [3]; buffered solution pH 4.5, 0 h): 1.0E+6 CFU/ml | germ count CFU/ml, 1 hour (C. xerosis [3]; buffered solution pH 4.5, 1 h): 5.5E+4 CFU/ml | germ count CFU/ml, 3 hours (C. xerosis [3]; buffered solution pH 4.5, 3 h): <2.0E+2 CFU/ml | germ count CFU/ml, 24 hours (C. xerosis [3]; buffered solution pH 4.5, 24 h): <2.0E+2 CFU/ml | germ count CFU/ml, 48 hours (C. xerosis [3]; buffered solution pH 4.5, 48 h): <2.0E+2 CFU/ml | germ count CFU/ml, 0 hours (C. xerosis [3]; buffered solution pH 5.5, 0 h): 1.0E+6 CFU/ml | germ count CFU/ml, 1 hour (C. xerosis [3]; buffered solution pH 5.5, 1 h): 1.8E+5 CFU/ml | germ count CFU/ml, 3 hours (C. xerosis [3]; buffered solution pH 5.5, 3 h): 3.5E+4 CFU/ml | germ count CFU/ml, 24 hours (C. xerosis [3]; buffered solution pH 5.5, 24 h): <2.0E+2 CFU/ml | germ count CFU/ml, 48 hours (C. xerosis [3]; buffered solution pH 5.5, 48 h): <2.0E+2 CFU/ml | germ count CFU/ml, 0 hours (C. xerosis [3]; buffered solution pH 6.9, 0 h): 7.3E+5 CFU/ml | germ count CFU/ml, 1 hour (C. xerosis [3]; buffered solution pH 6.9, 1 h): 3.3E+3 CFU/ml | germ count CFU/ml, 3 hours (C. xerosis [3]; buffered solution pH 6.9, 3 h): <2.0E+2 CFU/ml | germ count CFU/ml, 24 hours (C. xerosis [3]; buffered solution pH 6.9, 24 h): <2.0E+2 CFU/ml | germ count CFU/ml, 48 hours (C. xerosis [3]; buffered solution pH 6.9, 48 h): <2.0E+2 CFU/ml | germ count CFU/ml, 0 hours (S. epidermidis [4]; buffered solution pH 4.5, 0 h): 3.7E+6 CFU/ml | germ count CFU/ml, 1 hour (S. epidermidis [4]; buffered solution pH 4.5, 1 h): 2.1E+6 CFU/ml | germ count CFU/ml, 3 hours (S. epidermidis [4]; buffered solution pH 4.5, 3 h): 7.9E+4 CFU/ml | germ count CFU/ml, 24 hours (S. epidermidis [4]; buffered solution pH 4.5, 24 h): <2.0E+2 CFU/ml | germ count CFU/ml, 48 hours (S. epidermidis [4]; buffered solution pH 4.5, 48 h): <2.0E+2 CFU/ml | germ count CFU/ml, 0 hours (S. epidermidis [4]; buffered solution pH 5.5, 0 h): 3.7E+6 CFU/ml | germ count CFU/ml, 1 hour (S. epidermidis [4]; buffered solution pH 5.5, 1 h): 1.7E+6 CFU/ml | germ count CFU/ml, 3 hours (S. epidermidis [4]; buffered solution pH 5.5, 3 h): 4.7E+3 CFU/ml | germ count CFU/ml, 24 hours (S. epidermidis [4]; buffered solution pH 5.5, 24 h): <2.0E+2 CFU/ml | germ count CFU/ml, 48 hours (S. epidermidis [4]; buffered solution pH 5.5, 48 h): <2.0E+2 CFU/ml | germ count CFU/ml, 0 hours (S. epidermidis [4]; buffered solution pH 6.9, 0 h): 3.1E+6 CFU/ml | germ count CFU/ml, 1 hour (S. epidermidis [4]; buffered solution pH 6.9, 1 h): 1.5E+6 CFU/ml | germ count CFU/ml, 3 hours (S. epidermidis [4]; buffered solution pH 6.9, 3 h): 5.7E+4 CFU/ml | germ count CFU/ml, 24 hours (S. epidermidis [4]; buffered solution pH 6.9, 24 h): <2.0E+2 CFU/ml | germ count CFU/ml, 48 hours (S. epidermidis [4]; buffered solution pH 6.9, 48 h): <2.0E+2 CFU/ml

PEG-3-octyllactamide [Octyl-PEG-3-lactamide]
germ count CFU/ml, 1 hour (C. xerosis [1]): 6.3E+4 CFU/ml | germ count CFU/ml, 3 hours (C. xerosis [1]): 3.7E+3 CFU/ml | germ count CFU/ml, 24 hours (C. xerosis [1]): <2.0E+2 CFU/ml | germ count CFU/ml, 48 hours (C. xerosis [1]): <2.0E+2 CFU/ml | germ count CFU/ml, 0 hours (C. xerosis [1]): 9.1E+5 CFU/ml | germ count CFU/ml, 1 hour (S. epidermidis [2]): 4.1E+6 CFU/ml | germ count CFU/ml, 3 hours (S. epidermidis [2]): 3.1E+6 CFU/ml | germ count CFU/ml, 24 hours (S. epidermidis [2]): <2.0E+2 CFU/ml | germ count CFU/ml, 48 hours (S. epidermidis [2]): <2.0E+2 CFU/ml | germ count CFU/ml, 0 hours (S. epidermidis [2]): 1.9E+7 CFU/ml

CCCCCCNC(=O)C(C)O (stereo not shown) [Hexyllactamide, N-Hexyllactamide]
germ count CFU/ml, 1 hour (C. xerosis [1]): 5.5E+5 CFU/ml | germ count CFU/ml, 3 hours (C. xerosis [1]): 2.6E+3 CFU/ml | germ count CFU/ml, 24 hours (C. xerosis [1]): <2.0E+2 CFU/ml | germ count CFU/ml, 48 hours (C. xerosis [1]): <2.0E+2 CFU/ml | germ count CFU/ml, 0 hours (C. xerosis [1]): 2.5E+6 CFU/ml | germ count CFU/ml, 1 hour (S. epidermidis [2]): 1.7E+6 CFU/ml | germ count CFU/ml, 3 hours (S. epidermidis [2]): 7.1E+5 CFU/ml | germ count CFU/ml, 24 hours (S. epidermidis [2]): <2.0E+2 CFU/ml | germ count CFU/ml, 48 hours (S. epidermidis [2]): <2.0E+2 CFU/ml | germ count CFU/ml, 0 hours (S. epidermidis [2]): 8.6E+6 CFU/ml
